Measured values from the supplement of paper PMC10307832.

How the values were obtained:
Assay in all cases: relative viability (nuclei count vs DMSO), 5 days (fraction); higher = more cells survive
[1] = compound: COc1cc(Nc2ncc3c(n2)-c2ccc(Cl)cc2C(c2c(F)cccc2OC)=NC3)ccc1C(=O)O [Alisertib] + N=C(N)NC(=N)NCCc1ccccc1 [Phenformin] (partner 250 µM)
Outline: (§1)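 After 5 days of treatment, lung cancer cells in 1536-well plates were fixed and stained in a single step (final 0.05% Triton X-100, 1% formaldehyde, 1 ug/ml Hoechst) and their nuclei counted on 4× images. Treatment had been applied by pin tool the day after seeding as one drug alone or as a fixed anchor-drug dose with five library-drug doses (not always all listed) in √10 steps. Relative viability is the nuclei count of treated wells divided by that of vehicle wells, and values are medians of duplicate plates.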

[2] = compound: COc1cc(Nc2ncc3c(n2)-c2ccc(Cl)cc2C(c2c(F)cccc2OC)=NC3)ccc1C(=O)O [Alisertib] + COc1cccc2cc(-c3nc([C@H]4CC[C@H](C(=O)O)CC4)n4ncnc(N)c34)[nH]c12 [OSI-027] (partner 0.5 µM)
Outline: as §1

[3] = compound: COc1cc(Nc2ncc3c(n2)-c2ccc(Cl)cc2C(c2c(F)cccc2OC)=NC3)ccc1C(=O)O [Alisertib] + C[C@@H](Oc1cc(-c2cnn(C3CCNCC3)c2)cnc1N)c1c(Cl)ccc(F)c1Cl [Crizotinib] (partner 1 µM)
Outline: as §1

[4] = compound: COc1cc(Nc2ncc3c(n2)-c2ccc(Cl)cc2C(c2c(F)cccc2OC)=NC3)ccc1C(=O)O [Alisertib] + CC(=O)Nc1cccc(-n2c(=O)n(C3CC3)c(=O)c3c(Nc4ccc(I)cc4F)n(C)c(=O)c(C)c32)c1 [Trametinib] (partner 0.02 µM)
Outline: as §1

Cell Line	relative viability ([1]; first compound 0.005 µM)	relative viability ([1]; first compound 0.01581 µM)	relative viability ([1]; first compound 0.05 µM)	relative viability ([1]; first compound 0.1581 µM)	relative viability ([1]; first compound 0.5 µM)	relative viability ([2]; first compound 0.005 µM)	relative viability ([2]; first compound 0.01581 µM)	relative viability ([2]; first compound 0.05 µM)	relative viability ([2]; first compound 0.1581 µM)	relative viability ([2]; first compound 0.5 µM)	relative viability ([3]; first compound 0.005 µM)	relative viability ([3]; first compound 0.01581 µM)	relative viability ([3]; first compound 0.05 µM)	relative viability ([3]; first compound 0.1581 µM)	relative viability ([3]; first compound 0.5 µM)	relative viability ([4]; first compound 0.005 µM)	relative viability ([4]; first compound 0.01581 µM)	relative viability ([4]; first compound 0.05 µM)	relative viability ([4]; first compound 0.1581 µM)	relative viability ([4]; first compound 0.5 µM)
HCC-366	0.552	0.202	0.138	0.0286	0.0335	0.973	0.696	0.0686	0.04	0.0334	0.686	0.456	0.0307	0.0254	0.0216	0.306	0.23	0.0254	0.0345	0.0398
HCC-827	0.353	0.431	0.39	0.198	0.178	0.722	0.755	0.685	0.257	0.18	0.898	0.802	0.374	0.395	0.254	0.547	0.514	0.293	0.26	0.238
HOP-62	0.612	0.553	0.345	0.147	0.143	0.683	0.727	0.537	0.243	0.176	0.833	0.743	0.232	0.212	0.104	0.398	0.337	0.274	0.223	0.174
IA-LM	–	–	–	–	–	–	–	–	–	–	0.831	0.608	0.485	0.256	0.104	–	–	–	–	–
LC-2-ad	0.474	0.426	0.401	0.295	0.304	0.587	0.368	0.441	0.307	0.268	0.369	0.378	0.266	0.353	0.202	0.826	0.698	0.517	0.353	0.191
LCLC-97TM1	0.451	0.386	0.333	0.174	0.153	0.424	0.349	0.264	0.129	0.0853	0.334	0.298	0.138	0.128	0.152	0.202	0.201	0.124	0.126	0.0987
LCLC-103H	0.305	0.304	0.316	0.175	0.187	0.427	0.438	0.473	0.201	0.204	1.04	1.04	0.719	0.374	0.412	0.669	0.69	0.345	0.359	0.437
LK-2	0.38	0.385	0.179	0.149	0.163	0.224	0.232	0.185	0.166	0.17	0.226	0.232	0.224	0.233	0.288	0.746	0.677	0.522	0.25	0.183
LOU-NH91	0.582	0.668	0.508	0.372	0.32	0.682	0.719	0.674	0.389	0.324	0.76	0.705	0.494	0.463	0.424	0.783	0.751	0.663	0.513	0.425
LU99A	0.755	0.798	0.658	0.3	0.239	0.301	0.324	0.259	0.204	0.164	0.513	0.451	0.245	0.217	0.182	0.507	0.473	0.181	0.212	0.195
LXF-289	0.434	0.338	0.325	0.114	0.109	0.637	0.656	0.461	0.123	0.0861	0.762	0.443	0.204	0.186	0.178	0.586	0.628	0.265	0.192	0.152
NCI-H23	0.666	0.512	0.518	0.233	0.163	0.518	0.377	0.287	0.17	0.144	0.427	0.367	0.202	0.179	0.187	0.318	0.222	0.199	0.169	0.148
NCI-H522	0.521	0.56	0.75	0.419	0.493	0.684	0.618	0.69	0.532	0.433	–	–	–	–	–	0.779	0.777	0.728	0.551	0.445
NCI-H1395	0.427	0.413	0.44	0.358	0.329	0.521	0.605	0.527	0.415	0.356	–	–	–	–	–	1.04	0.922	0.85	0.481	0.38
NCI-H1563	0.664	0.643	0.674	0.724	0.539	0.742	0.768	0.684	0.695	0.54	0.741	0.911	0.788	0.809	0.601	–	–	–	–	–
NCI-H1648	–	–	–	–	–	0.258	0.242	0.23	0.252	0.239	–	–	–	–	–	–	0.42	0.27	0.229	0.25
NCI-H1703	–	–	–	–	–	–	–	–	–	–	0.711	0.501	0.294	0.37	0.113	–	–	–	–	–
NCI-H1793	0.312	0.233	0.291	0.191	0.148	0.257	0.149	0.213	0.193	0.149	–	–	–	–	–	0.373	0.285	0.192	0.207	0.188
NCI-H2342	0.552	0.551	0.581	0.41	0.362	0.529	0.643	0.589	0.468	0.383	–	–	–	–	–	0.758	0.809	0.483	0.481	0.443
SW 900	0.434	0.589	0.442	0.18	0.141	0.532	0.399	0.543	0.167	0.111	–	–	–	–	–	0.917	0.827	0.374	0.217	0.144
